# Experimental data as given in patent US10987349B2, “Antitumor agent and bromodomain inhibitor” (FUJIFILM Corporation, priority 2016, dated 2021).
# How the values were obtained:
# PC-3 = assay: Cell growth test (Cell Titer Blue) PC-3; format: cell-based; details: Homo sapiens, 72 h, PC-3, Prostate cancer, 3 days
# Experimental: (§1) Moreover, the compound of Example 14 was subjected to a cell growth test using various types of cell lines.
# (§2) All cell lines other than the below-noticed cells were each seeded in a well plate, in which an RPMI-1640 medium supplemented with penicillin/streptomycin and FBS with a final concentration of 10% was placed. The human prostate cancer cell line VCaP (ATCC) was seeded in a well plate, in which DMEM medium supplemented with penicillin/streptomycin and FBS with a final concentration of 10% was placed. […] Thereafter, using Enspire Multimode Plate Reader (PerkinElmer), the amount of fluorescence at an excitation wavelength of 531 nm and a fluorescence wavelength of 615 nm was measured. Since the amount of fluorescence is in proportion to the concentration of a florescent product resorufin that is converted from resazurin as a redox dye by living cells, the amount of fluorescence was used as an indicator of the number of living cells. The growth inhibition percentage of the test compound in each concentration was calculated according to the following equation. Growth inhibition percentage (%)=(amount of fluorescence in test compound−added well)/(amount of fluorescence in DMSO−added well)×100 […]
# NCI-H1299 = assay: Cell growth test (Cell Titer Blue) NCI-H1299; format: cell-based; details: Homo sapiens, 72 h, NCI-H1299, Lung cancer, 3 days
# Experimental: as §1, §2
# NCI-H522 = assay: Cell growth test (Cell Titer Blue) NCI-H522; format: cell-based; details: Homo sapiens, 72 h, NCI-H522, Lung cancer, 3 days
# Experimental: as §1, §2
# NCI-H460 = assay: Cell growth test (Cell Titer Blue) NCI-H460; format: cell-based; details: Homo sapiens, 72 h, NCI-H460, Lung cancer, 3 days
# Experimental: as §1, §2
# HL-60 = assay: Cell growth test (Cell Titer Blue) HL-60; format: cell-based; details: Homo sapiens, 72 h, HL-60, Acute myeloid leukemia, 3 days
# Experimental: as §1, §2
# c-Myc gene = assay: Expression of c-Myc gene in MV4-11 cells, RT-PCR; format: cell-based, human; details: MV4-11 cells, 10, 30 or 100 nmol/L, 6 hours
# Experimental: (§3) A fluctuation in the expression of c-Myc, IL-7R and HEXIM1 genes in MV4-11 (ATCC) cells treated with the test compound was analyzed according to a reverse transcription polymerase chain reaction (RT-PCR) method.
# (§4) MV4-11 cells were cultured for 6 hours in an RPMI-1640 medium supplemented with penicillin/streptomycin and FBS with a final concentration of 10%, to which the compound of Example 14 was added to a concentration of 10 nmol/L, 30 nmol/L or 100 nmol/L. On the other hand, a non-treatment group (Non-treatment) was established by culturing MV4-11 cells for 6 hours in the above-described medium, to which the compound of Example 14 was not added. Using Rneasy (registered trademark) (Qiagen), RNA was extracted from the above-described MV4-11 cells in accordance with the instruction manual included with the aforementioned device. […] Thereafter, a PCR reaction was carried out for 40 cycles (a cycle consisting of 95° C.-5 seconds and 60° C.-30 seconds.) Subsequently, the obtained reaction product was measured.
# (§5) As a housekeeping gene, the expression level of GAPDH (Glyceraldehyde 3-phosphate dehydrogenase) was also evaluated. The ratio of the expression level of the mRNA of each of c-Myc, IL-7R and HEXIM1 to the expression level of GAPDH was calculated, and the expression level of each gene (relative expression level) was then quantified. […]
# BxPC-3 = assay: Cell growth test (Cell Titer Blue) BxPC-3; format: cell-based; details: Homo sapiens, 72 h, BxPC-3, Pancreatic cancer, 3 days
# Experimental: as §1, §2
# IL-7R gene = assay: Expression of IL-7R gene in MV4-11 cells, RT-PCR; format: cell-based, human; details: MV4-11 cells, 10, 30 or 100 nmol/L, 6 hours
# Experimental: as §3, §4, §5
# HOP-62 = assay: Cell growth test (Cell Titer Blue) HOP-62; format: cell-based; details: Homo sapiens, 72 h, HOP-62, Lung cancer, 3 days
# Experimental: as §1, §2
# Daudi = assay: Cell growth test (Cell Titer Blue) Daudi; format: cell-based; details: Homo sapiens, 72 h, Lymphoma, 3 days
# Experimental: as §1, §2
# U-937 = assay: Cell growth test (Cell Titer Blue) U-937; format: cell-based; details: Homo sapiens, 72 h, U-937, Lymphoma, 3 days
# Experimental: as §1, §2
smiles,measurement,setting,value
"CCn1c(=O)cc(C2CCN(C)CC2)c2cc(C(=O)N(C)c3ccc(C)cc3)ccc21 [Example 14, 1-Ethyl-N-methyl-N-(4-methylphenyl)-4-(1-methylpiperidin-4-yl)-2-oxo-1,2-dihydroquinoline-6-carboxamide]",GI50,PC-3,175 nM
same,GI50,NCI-H1299,422 nM
same,GI50,NCI-H522,155 nM
same,GI50,NCI-H460,2030 nM
same,GI50,HL-60,27 nM
same,mRNA expression of c-Myc (GAPDH correction),c-Myc gene,decreased in a compound concentration-dependent manner
same,GI50,BxPC-3,2550 nM
same,mRNA expression of IL-7R (GAPDH correction),IL-7R gene,decreased in a compound concentration-dependent manner
same,GI50,HOP-62,143 nM
same,GI50,Daudi,165 nM
same,GI50,U-937,286 nM
